From patent US6939863B2, “Prevention of atherosclerosis and restenosis” (priority 2002, dated 2005)
Entries after “also recorded” stand apart in the source; their conditions may differ. Read-outs that look alike come from different tables or passages of the source.

Columns and labels:
[1] = summary table; cited from earlier work
[2] = system: human endothelial cells from umbilical veins; experiment: cells
Experimental: (§1) Rat vascular smooth muscle cells (VSMCs) (passages 5-10) were prepared from Sprague-Dawley rats and cultured in Dulbecco's modified Eagle's medium (DMEM) supplemented with 10% fetal bovine serum (FBS) as previously described (Kirschenlohr et al, in “Human Cell Culture Protocols”, New Jersey, Humana Press Inc, 1996, pp. 318-335). Human endothelial cells from umbilical veins were prepared as described (Morgan, in “Human Cell Culture Protocols”, New Jersey, Humana Press Inc, 1996, pp. 101-152)
(§2) Rat vascular smooth muscle cells and human endothelial cells were plated at a density of 10,000 cells per square centimeter in 24-well plates. After 24 hours, cells at 70-80% confluency were treated with propylthiouracil dissolved in 100% dimethylsulfoxide (DMSO) at final concentrations of from 0.05 millimolar to 15 millimolar, or with methimazole (Sigma, St. Louis, Mo.) dissolved in water at the concentrations of from 0.01 millimolar to 1 millimolar for 24-72 hours. Cell numbers were visually counted using a hemocytometer. For the thymidine incorporation study, cells were deprived of serum for 36 hours and labeled with [methyl-^3H]thymidine at […] per milliliter for 12-24 hours after synchronization. Thymidine incorporation was then measured (Newby and George, 1996, Curr. Opin. Cardiol., 11:547). Effects of propylthiouracil and methimazole on the number of vascular smooth muscle cells and human endothelial cells and thymidine incorporation by vascular smooth muscle cells were each expressed as a percentage of the number and thymidine incorporation of control cells maintained in medium containing 0.1% DMSO as vehicle.

in vivo = details: male, New Zealand White, rabbit, 0.1 % in the drinking water, Serum PTU at sacrifice, 0.1% propylthiouracil in drinking water
Experimental: Serum propylthiouracil levels were measured by HPLC with mephenoxalone (Tung Yang Chemical Industries, Taiwan) as an internal standard. One hundred microliters of serum was placed into a tube containing 25 microliters of mephenoxalone (Tung Yang Chemical Industries, Taiwan) at 1 milligram per milliliter. All tubes were treated with 25 microliters of 1 molar K2HPO4 and mixed well by vortexing. The contents of each tube were extracted with 2 milliliters of methyl tert-butyl ether (MTBE) (Sigma, St. Louis, Mo.). Tube contents were mixed and centrifuged for 10 minutes at 3000 rpm at 25° C. The supernatant was transferred to a glass tube, dried under nitrogen gas, and reconstituted with 300 microliters of mobile phase. HPLC was performed by using a Hitachi HPLC system (Hitachi, Japan). An ODS column (Cosmosil 5C18-MS, 4.6 millimeters×250 millimeters, 5 micrometers, Nacalai Tesque, Japan) was used in this chromatographic separation, as well as an ultraviolet detector detecting at 275 nanometers. The mobile phase (acetonitrile/water/phosphoric acid, 40/60/0.5, vol/vol/vol) was degassed and filtered before use. The column flow rate was 1.0 milliliter per minute and column temperature was maintained at 40° C.

[3] = Rabbit 12-week study: body weight, chow and water consumption, serum lipids, thyroid hormone index, blood counts, arterial pressure, heart rate; details: for Weight at sacrifice / Chow consumption: 12 weeks; for Chow consumption / Water consumption: mean ± SD
[4] = system: rat vascular smooth muscle cells; experiment: [methyl-3H]thymidine incorporation into VSMCs; format: cell-based
Experimental: as §1, §2

[5] = system: rat vascular smooth muscle cells; details: summary table, propylthiouracil; non-contractile to contractile phenotype in vitro
[6] = system: rat vascular smooth muscle cells; details: for Pyknosis or karyorhexis (features of apoptosis), propidium iodide-stained cells: 5 millimolar, 24 hours
[7] = system: aortas and femoral arteries of cholesterol-fed rabbits; experiment: Atherosclerotic lesions in rabbits on 2% cholesterol diet (Sudan III, intima/media morphometry, immunohistochemistry); format: in vivo, New Zealand White rabbits; details: for Extent of sudanophilic areas / atherosclerosis in the aorta: 0.1% propylthiouracil in drinking water, 12 weeks; for Alpha-smooth muscle actin-positive cells (VSMCs) in atheromas / VSMC/macrophage ratio in atherosclerotic lesions: CHO+PTU versus CHO alone
Experimental: At the end of 12 weeks of study, the rabbits were sacrificed. The aortas (from the ascending aorta to the iliac bifurcation) and femoral arteries were removed, rinsed with phosphate-buffered saline (PBS) and stained with Sudan III, or fixed with 4% paraformaldehyde and paraffin-embedded for hematoxylin-eosin staining or immunohistochemical analysis.
For morphometric studies, up to ten cross sections ([…] and 2 millimeters apart from each other) were prepared from each paraffin-embedded segment of the aorta and femoral arteries. The specimens were stained with hematoxylin and eosin. For each cross section of an arterial specimen, the intimal and medial areas were measured.
For immunohistochemical studies, the arterial sections were deparaffinized, rehydrated and blocked in PBS containing 1% bovine serum albumin and 1% goat serum at room temperature for 30 minutes. The sections were then incubated with mouse monoclonal antibodies against smooth muscle cell alpha-actin (clone 1A4, catalogue number M0851, DAKO Corp., Carpenteria, Calif.) and mouse monoclonal antibodies against rabbit macrophages (clone RAM 11, catalogue number M0633, DAKO Corp., Carpenteria, Calif.) at 4° C. overnight. Subsequently, immunohistochemistry was performed using a commercially available peroxidase-labelled streptavidin-biotin kit (DAKO LSAB peroxidase, catalogue number K0675, DAKO, Carpenteria, Calif.) and 3,3′-diaminobenzidine tetrahydrochloride (DAKO liquid DAB+ substrate-chromagen system, catalogue number K3468, DAKO, Carpenteria, Calif.) according to the procedures provide by manufacturer.

[8] = propylthiouracil-treated groups
For Anti-inflammation in this document: key: '+' represents the ability; a '−' represents the inability of conversion from a non-contracile phenotype to a contractile phenotype in an in vitro condition; A '↓' represents decrease; a '?' represents no data is available.

For `CCCc1cc(=O)[nH]c(=S)[nH]1` [Propylthiouracil, 6-n-propyl-2-thiouracil], the Anti-inflammation [1] is listed as “+”, the “Concentration at which significant inhibition of growth of vascular endothelial cells was observed” value ([2]; 24 hours) is listed as no less than 10 millimolar and the “Growth of vascular endothelial cells” value ([2]; 24 hours, concentrations of up to 7.5 millimolar) is listed as “did not significantly inhibit”. The “Difference in inhibitory effect, vascular endothelial cells less than vascular smooth muscle cells” value ([2]; FIG. 7) was 20-30%, the IC50 ([2]; Homo sapiens, Endothelial cell, 24 h, read-out: IC50 for endothelial cells (proliferation)) was 12 mM and the Endothelial cellular function ([2]; summary table, propylthiouracil) was “+”. For the same molecule, the concentration at 12 weeks (in vivo; 2% cholesterol diet) was 1330 ± 1200 ng/mL, the concentration at 12 weeks (in vivo; normal chow) was 1570 ± 700 ng/mL and the “Serum (milligrams percent) at sacrifice” value ([3]; 2% cholesterol diet) was 43 ± 33 milligrams percent. For the same molecule, the “Serum CHO at sacrifice” value ([3]; 2% cholesterol diet) was 1965 ± 156 milligrams percent, the “Serum HDL at sacrifice” value ([3]; 2% cholesterol diet) was 67 ± 24 milligrams percent and the “Serum LDL at sacrifice” value ([3]; 2% cholesterol diet) was 1856 ± 152 milligrams percent. For the same molecule, the “Serum TG at sacrifice” value ([3]; 2% cholesterol diet) was 213 ± 167 milligrams percent, the Weight at sacrifice ([3]; 2% cholesterol diet) was 3.06 ± 0.17 kilograms and the Chow consumption ([3]; 2% cholesterol diet) was 123 ± 18 grams per day. The Water consumption ([3]; 2% cholesterol diet) was 201 ± 41 milliliters per day, the “Body weight at the end of treatment” value ([3]; PTU and CHO+PTU groups, despite decreased water and chow intake) was “did not have a reduction in the body weight” and the “Serum thyroxine (T4)” value ([3]; after 4 weeks of treatment) was “decreased-to unmeasurable levels”. The “Serum triiodothyronine (T3)” value ([3]; after 4 weeks of treatment) was “decreased-to unmeasurable levels; also recorded: decreased to unmeasurable levels”, the “Thyrotropin (TSH) level” value ([3]; hypothyroid groups) was “increase” and the “Arterial pressures and heart rates” value ([3]; hypothyroid propylthiouracil-treated groups) was “did not have their arterial pressures and heart rates altered”. The “Serum (milligrams percent) at sacrifice” value ([3]; normal chow) was 32 ± 8 milligrams percent, the “Serum CHO at sacrifice” value ([3]; normal chow) was 154 ± 22 milligrams percent and the “Serum HDL at sacrifice” value ([3]; normal chow) was 43 ± 30 milligrams percent. The “Serum LDL at sacrifice” value ([3]; normal chow) was 82 ± 32 milligrams percent, the “Serum TG at sacrifice” value ([3]; normal chow) was 175 ± 50 milligrams percent and the Weight at sacrifice ([3]; normal chow) was 3.08 ± 0.17 kilograms. The Chow consumption ([3]; normal chow) was 113 ± 13 grams per day, the Water consumption ([3]; normal chow) was 196 ± 17 milliliters per day and the “Serum cholesterol, triglyceride, LDL, and VLDL levels compared with the control group” value ([3]; normal chow, propylthiouracil only (Group 2)) was “slight increase”. For the same molecule, the Agranulocytosis [3, 8] was “did not occur”, the Blood counts [3, 8] was “remained essentially unchanged” and the “Thymidine incorporation into VSMCs” value ([4]; 0.05 millimolar) was 99 % of control. For the same molecule, the “Thymidine incorporation into VSMCs” value ([4]; 0.5 millimolar) was 93 % of control, the “Thymidine incorporation into VSMCs” value ([4]; 2.5 millimolar) was 75 % of control and the “Thymidine incorporation into VSMCs” value ([4]; 5 millimolar) was 38 % of control. For the same molecule, the “Inhibition of thymidine incorporation into VSMCs” value ([4]; concentration-dependent) was “significantly inhibited”, the Phenotype change [5] was “+” and the “Pyknosis or karyorhexis (features of apoptosis), propidium iodide-stained cells” value [6] was “did not cause any pyknosis or karyorhexis”. For the same molecule, the “Pyknosis or karyorhexis (features of apoptosis), propidium iodide-stained cells” value ([6]; listed as propylthiouracil) was “did not cause pyknosis or karyorhexis”, the “TUNEL-positive cells in VSMCs” value ([6]; propylthiouracil-treated VSMCs) was “absent” and the “Extent of sudanophilic areas / atherosclerosis in the aorta” value ([7]; 2% cholesterol diet) was “markedly less; also recorded: significantly decreased”. The “Extent of sudanophilic areas / atherosclerosis in the aorta” value ([7]; 2% cholesterol diet, listed as PTU) was “markedly less”, the “Alpha-smooth muscle actin-positive cells (VSMCs) in atheromas” value [7] was “significantly fewer” and the “VSMC/macrophage ratio in atherosclerotic lesions” value [7] was “reduce”. For the same molecule, the “Alpha-smooth muscle actin-positive cells (VSMCs) in atheromas” value ([7]; listed as PTU) was “markedly fewer”, the “VSMC/macrophage ratio in atherosclerotic lesions” value ([7]; listed as PTU) was “decreased” and the Intima/media area ratio ([7]; ascending aorta, aortic arch and femoral arteries, 2% cholesterol diet) was “deceased significantly”. The “Visible atherosclerotic lesion in aortas and arteries” value ([7]; normal chow, Groups 2 and 3, data not shown) was “no visible atherosclerotic lesion” and the “TUNEL-positive cells in aortas of rabbits” value ([7]; propylthiouracil and cholesterol/propylthiouracil treatment groups) was “absent”.
